From patent publication US5486516A, “Furopyrimidine derivatives” (DowElanco, priority 1993, dated 1996)

tested on: Pyricularia oryzae (rice blast); assay: whole plant or invertebrate; format: in vivo; conditions: foliar, read-out: RICE BLAST control rating

SMILES	pest or weed control at 400 µg/mL [%]
Cc1oc2ncnc(Oc3ccc(OC(F)(F)F)cc3)c2c1C [Example 32, 5,6-dimethyl-4-[4-(trifluoromethoxy)phenoxy]furo[2,3-d]pyrimidine]	0 to 19
Cc1oc2ncnc(Oc3ccc(F)cc3Cl)c2c1C [Example 59, 4-(2-chloro-4-fluorophenoxy)-5,6-dimethylfuro[2,3-d]pyrimidine]	0 to 19
Cc1oc2ncnc(NCCc3cccc(C(F)(F)F)c3)c2c1C [Example 23, 5,6-dimethyl-N-[2-[3-(trifluoromethyl)phenyl]ethyl]furo[2,3-d]pyrimidin-4-amine]	0 to 19
Cc1ccc(CCNc2ncnc3occ(C)c23)cc1 [Example 48, 5-methyl-N-[2-(4-methylphenyl)ethyl]furo[2,3-d]pyrimidin-4-amine]	90 to 100

tested on: Southern corn rootworm (Diabrotica undecimpuctata howardi Barber); assay: Mite/insect screen, corn rootworm; format: in vivo; conditions: Diabrotica; CRW rate 12.00 ppm, soil; read-out: CRW results (percent mortality)
Protocol: (§1) The compounds of Examples were tested for miticidal and insecticidal activity in the following mite/insect screen.
(§2) Each test compound was formulated by dissolving the compound in acetone/alcohol (50:50) mixture containing 23 g of "TOXIMUL R" (sulfonate/nonionic emulsifier blend) and 13 g of "TOXIMUL S" (sulfonate/nonionic emulsifier blend) per liter. These mixtures were then diluted with water to give the indicated concentrations.
Activity on Southern corn rootworm (Diabrotica undecimpuctata howardi Barber) was evaluated by adding two ml of tap water, a presoaked corn seed, and 15 g of dry sandy soil to a one ounce plastic container. The soil was treated with 1 mL of test solution containing a predetermined concentration of test compound. After six to 12 hours of drying, five 2-3 instar corn rootworm larvae were added to the individual cups, which were then capped and held at 23° C.
(§3) After standard exposure periods, percent mortality and phytotoxicity were evaluated. […] The following abbreviations are used in Table 3:
CRW refers to corn rootworm

SMILES	mortality at 12 ppm [%]
Cc1oc2ncnc(Oc3ccc(OC(F)(F)F)cc3)c2c1C [Example 32, 5,6-dimethyl-4-[4-(trifluoromethoxy)phenoxy]furo[2,3-d]pyrimidine]	0
Cc1oc2ncnc(Oc3ccc(F)cc3Cl)c2c1C [Example 59, 4-(2-chloro-4-fluorophenoxy)-5,6-dimethylfuro[2,3-d]pyrimidine]	0
Cc1oc2ncnc(NCCc3cccc(C(F)(F)F)c3)c2c1C [Example 23, 5,6-dimethyl-N-[2-[3-(trifluoromethyl)phenyl]ethyl]furo[2,3-d]pyrimidin-4-amine]	100
Cc1ccc(CCNc2ncnc3occ(C)c23)cc1 [Example 48, 5-methyl-N-[2-(4-methylphenyl)ethyl]furo[2,3-d]pyrimidin-4-amine]	60

same assay, conditions: Diabrotica; CRW rate 24.00 ppm, soil; read-out: CRW results (percent mortality)

SMILES	mortality at 24 ppm [%]
Cc1oc2ncnc(Oc3ccc(OC(F)(F)F)cc3)c2c1C [Example 32, 5,6-dimethyl-4-[4-(trifluoromethoxy)phenoxy]furo[2,3-d]pyrimidine]	0
Cc1oc2ncnc(Oc3ccc(F)cc3Cl)c2c1C [Example 59, 4-(2-chloro-4-fluorophenoxy)-5,6-dimethylfuro[2,3-d]pyrimidine]	0
Cc1oc2ncnc(NCCc3cccc(C(F)(F)F)c3)c2c1C [Example 23, 5,6-dimethyl-N-[2-[3-(trifluoromethyl)phenyl]ethyl]furo[2,3-d]pyrimidin-4-amine]	0
Cc1ccc(CCNc2ncnc3occ(C)c23)cc1 [Example 48, 5-methyl-N-[2-(4-methylphenyl)ethyl]furo[2,3-d]pyrimidin-4-amine]	100

tested on: southern armyworm (Spodopetra eridania Cramer); assay: Mite/insect screen, Southern armyworm; format: in vivo; conditions: Spodoptera eridania; rate 200 ppm, sprayed leaves; read-out: SAW results (percent mortality)
Protocol: as §1, §2
(§4) Twospotted spider mites (Tetranychus urticae Koch) and melon aphids (Aphis gossvpii Glover) were introduced on squash cotyledons and allowed to establish on both leaf surfaces. Other plants in the same treatment pot were left uninfested. The leaves were then sprayed with 5 ml of test solution using a DeVilbiss atomizing sprayer at 10 psi. Both surfaces of the leaves were covered until runoff, and then allowed to dry for one hour. Two uninfested leaves were then excised and placed into a Petri dish containing larval southern armyworm (Spodopetra eridania Cramer).
as §3
SAW refers to Southern armyworm

SMILES	mortality at 200 ppm [%]
Cc1oc2ncnc(Oc3ccc(OC(F)(F)F)cc3)c2c1C [Example 32, 5,6-dimethyl-4-[4-(trifluoromethoxy)phenoxy]furo[2,3-d]pyrimidine]	0
Cc1oc2ncnc(Oc3ccc(F)cc3Cl)c2c1C [Example 59, 4-(2-chloro-4-fluorophenoxy)-5,6-dimethylfuro[2,3-d]pyrimidine]	0
Cc1oc2ncnc(NCCc3cccc(C(F)(F)F)c3)c2c1C [Example 23, 5,6-dimethyl-N-[2-[3-(trifluoromethyl)phenyl]ethyl]furo[2,3-d]pyrimidin-4-amine]	0
Cc1ccc(CCNc2ncnc3occ(C)c23)cc1 [Example 48, 5-methyl-N-[2-(4-methylphenyl)ethyl]furo[2,3-d]pyrimidin-4-amine]	0

same assay, conditions: Spodoptera eridania; rate 400 ppm, sprayed leaves; read-out: SAW results (percent mortality)

SMILES	mortality at 400 ppm [%]
Cc1oc2ncnc(Oc3ccc(OC(F)(F)F)cc3)c2c1C [Example 32, 5,6-dimethyl-4-[4-(trifluoromethoxy)phenoxy]furo[2,3-d]pyrimidine]	0
Cc1oc2ncnc(Oc3ccc(F)cc3Cl)c2c1C [Example 59, 4-(2-chloro-4-fluorophenoxy)-5,6-dimethylfuro[2,3-d]pyrimidine]	0
Cc1oc2ncnc(NCCc3cccc(C(F)(F)F)c3)c2c1C [Example 23, 5,6-dimethyl-N-[2-[3-(trifluoromethyl)phenyl]ethyl]furo[2,3-d]pyrimidin-4-amine]	0
Cc1ccc(CCNc2ncnc3occ(C)c23)cc1 [Example 48, 5-methyl-N-[2-(4-methylphenyl)ethyl]furo[2,3-d]pyrimidin-4-amine]	0

tested on: Twospotted spider mites (Tetranychus urticae Koch); assay: Mite/insect screen, twospotted spider mites; format: in vivo; conditions: Tetranychus urticae, rate 200 ppm, sprayed leaves; read-out: SM results (percent mortality)
Protocol: as §1, §2, §4, §3
SM refers to twospotted spider mites

SMILES	mortality at 200 ppm [%]
Cc1oc2ncnc(Oc3ccc(OC(F)(F)F)cc3)c2c1C [Example 32, 5,6-dimethyl-4-[4-(trifluoromethoxy)phenoxy]furo[2,3-d]pyrimidine]	0
Cc1oc2ncnc(Oc3ccc(F)cc3Cl)c2c1C [Example 59, 4-(2-chloro-4-fluorophenoxy)-5,6-dimethylfuro[2,3-d]pyrimidine]	0
Cc1oc2ncnc(NCCc3cccc(C(F)(F)F)c3)c2c1C [Example 23, 5,6-dimethyl-N-[2-[3-(trifluoromethyl)phenyl]ethyl]furo[2,3-d]pyrimidin-4-amine]	0
Cc1ccc(CCNc2ncnc3occ(C)c23)cc1 [Example 48, 5-methyl-N-[2-(4-methylphenyl)ethyl]furo[2,3-d]pyrimidin-4-amine]	0

same assay, conditions: Tetranychus urticae, rate 400 ppm, sprayed leaves; read-out: SM results (percent mortality)

SMILES	mortality at 400 ppm [%]
Cc1oc2ncnc(Oc3ccc(OC(F)(F)F)cc3)c2c1C [Example 32, 5,6-dimethyl-4-[4-(trifluoromethoxy)phenoxy]furo[2,3-d]pyrimidine]	0
Cc1oc2ncnc(Oc3ccc(F)cc3Cl)c2c1C [Example 59, 4-(2-chloro-4-fluorophenoxy)-5,6-dimethylfuro[2,3-d]pyrimidine]	0
Cc1oc2ncnc(NCCc3cccc(C(F)(F)F)c3)c2c1C [Example 23, 5,6-dimethyl-N-[2-[3-(trifluoromethyl)phenyl]ethyl]furo[2,3-d]pyrimidin-4-amine]	0
Cc1ccc(CCNc2ncnc3occ(C)c23)cc1 [Example 48, 5-methyl-N-[2-(4-methylphenyl)ethyl]furo[2,3-d]pyrimidin-4-amine]	0

tested on: melon aphids (Aphis gossvpii Glover); assay: Mite/insect screen, melon aphids; format: in vivo; conditions: Aphis; rate 200 ppm, sprayed leaves; read-out: MA results (percent mortality)
Protocol: as §1, §2, §4, §3
MA refers to melon aphids.

SMILES	mortality at 200 ppm [%]
Cc1oc2ncnc(Oc3ccc(OC(F)(F)F)cc3)c2c1C [Example 32, 5,6-dimethyl-4-[4-(trifluoromethoxy)phenoxy]furo[2,3-d]pyrimidine]	0
Cc1oc2ncnc(Oc3ccc(F)cc3Cl)c2c1C [Example 59, 4-(2-chloro-4-fluorophenoxy)-5,6-dimethylfuro[2,3-d]pyrimidine]	0
Cc1oc2ncnc(NCCc3cccc(C(F)(F)F)c3)c2c1C [Example 23, 5,6-dimethyl-N-[2-[3-(trifluoromethyl)phenyl]ethyl]furo[2,3-d]pyrimidin-4-amine]	0
Cc1ccc(CCNc2ncnc3occ(C)c23)cc1 [Example 48, 5-methyl-N-[2-(4-methylphenyl)ethyl]furo[2,3-d]pyrimidin-4-amine]	0

same assay, conditions: Aphis; rate 400 ppm, sprayed leaves; read-out: MA results (percent mortality)

SMILES	mortality at 400 ppm [%]
Cc1oc2ncnc(Oc3ccc(OC(F)(F)F)cc3)c2c1C [Example 32, 5,6-dimethyl-4-[4-(trifluoromethoxy)phenoxy]furo[2,3-d]pyrimidine]	0
Cc1oc2ncnc(Oc3ccc(F)cc3Cl)c2c1C [Example 59, 4-(2-chloro-4-fluorophenoxy)-5,6-dimethylfuro[2,3-d]pyrimidine]	0
Cc1oc2ncnc(NCCc3cccc(C(F)(F)F)c3)c2c1C [Example 23, 5,6-dimethyl-N-[2-[3-(trifluoromethyl)phenyl]ethyl]furo[2,3-d]pyrimidin-4-amine]	0
Cc1ccc(CCNc2ncnc3occ(C)c23)cc1 [Example 48, 5-methyl-N-[2-(4-methylphenyl)ethyl]furo[2,3-d]pyrimidin-4-amine]	80

tested on: Puccinia recondita tritici (leaf rust); assay: Plant pathology screen (Test 1), leaf rust on wheat; conditions: in Triticum aestivum, foliar, read-out: LEAF RUST control rating

SMILES	pest or weed control at 400 µg/mL [%]
Cc1oc2ncnc(Oc3ccc(OC(F)(F)F)cc3)c2c1C [Example 32, 5,6-dimethyl-4-[4-(trifluoromethoxy)phenoxy]furo[2,3-d]pyrimidine]	0 to 19
Cc1oc2ncnc(Oc3ccc(F)cc3Cl)c2c1C [Example 59, 4-(2-chloro-4-fluorophenoxy)-5,6-dimethylfuro[2,3-d]pyrimidine]	20 to 89
Cc1oc2ncnc(NCCc3cccc(C(F)(F)F)c3)c2c1C [Example 23, 5,6-dimethyl-N-[2-[3-(trifluoromethyl)phenyl]ethyl]furo[2,3-d]pyrimidin-4-amine]	20 to 89
Cc1ccc(CCNc2ncnc3occ(C)c23)cc1 [Example 48, 5-methyl-N-[2-(4-methylphenyl)ethyl]furo[2,3-d]pyrimidin-4-amine]	90 to 100

tested on: Pseudoperonospora cubensis (downy mildew); assay: Plant pathology screen (Test 1), downy mildew on squash; conditions: foliar, read-out: DOWN MDEW control rating

SMILES	pest or weed control at 400 µg/mL [%]
Cc1oc2ncnc(Oc3ccc(OC(F)(F)F)cc3)c2c1C [Example 32, 5,6-dimethyl-4-[4-(trifluoromethoxy)phenoxy]furo[2,3-d]pyrimidine]	0 to 19
Cc1oc2ncnc(Oc3ccc(F)cc3Cl)c2c1C [Example 59, 4-(2-chloro-4-fluorophenoxy)-5,6-dimethylfuro[2,3-d]pyrimidine]	0 to 19
Cc1oc2ncnc(NCCc3cccc(C(F)(F)F)c3)c2c1C [Example 23, 5,6-dimethyl-N-[2-[3-(trifluoromethyl)phenyl]ethyl]furo[2,3-d]pyrimidin-4-amine]	0 to 19
Cc1ccc(CCNc2ncnc3occ(C)c23)cc1 [Example 48, 5-methyl-N-[2-(4-methylphenyl)ethyl]furo[2,3-d]pyrimidin-4-amine]	90 to 100

tested on: Erysiphe graminis tritici (powdery mildew); assay: Plant pathology screen (Test 1), powdery mildew on wheat; conditions: Blumeria graminis, in Triticum aestivum, foliar, read-out: POWD MDEW control rating

SMILES	pest or weed control at 400 µg/mL [%]
Cc1oc2ncnc(Oc3ccc(OC(F)(F)F)cc3)c2c1C [Example 32, 5,6-dimethyl-4-[4-(trifluoromethoxy)phenoxy]furo[2,3-d]pyrimidine]	0 to 19
Cc1oc2ncnc(Oc3ccc(F)cc3Cl)c2c1C [Example 59, 4-(2-chloro-4-fluorophenoxy)-5,6-dimethylfuro[2,3-d]pyrimidine]	90 to 100
Cc1oc2ncnc(NCCc3cccc(C(F)(F)F)c3)c2c1C [Example 23, 5,6-dimethyl-N-[2-[3-(trifluoromethyl)phenyl]ethyl]furo[2,3-d]pyrimidin-4-amine]	0 to 19
Cc1ccc(CCNc2ncnc3occ(C)c23)cc1 [Example 48, 5-methyl-N-[2-(4-methylphenyl)ethyl]furo[2,3-d]pyrimidin-4-amine]	90 to 100

tested on: Botrytis cinerea (gray mold); assay: Plant pathology screen (Test 1), gray mold on grape berries; conditions: read-out: GRAY MOLD control rating

SMILES	pest or weed control at 400 µg/mL [%]
Cc1oc2ncnc(Oc3ccc(F)cc3Cl)c2c1C [Example 59, 4-(2-chloro-4-fluorophenoxy)-5,6-dimethylfuro[2,3-d]pyrimidine]	0 to 19
Cc1oc2ncnc(NCCc3cccc(C(F)(F)F)c3)c2c1C [Example 23, 5,6-dimethyl-N-[2-[3-(trifluoromethyl)phenyl]ethyl]furo[2,3-d]pyrimidin-4-amine]	0 to 19
Cc1ccc(CCNc2ncnc3occ(C)c23)cc1 [Example 48, 5-methyl-N-[2-(4-methylphenyl)ethyl]furo[2,3-d]pyrimidin-4-amine]	0 to 19
